We go through 1 compound from patent US20150284347A1, “NEW BENZENE SULFONAMIDE THIAZOLE COMPOUNDS” (INSERM (INSTITUT NATIONAL DE LA SANTÉ ET DE LA RECHERCHE …, priority 2012, published 2015).

The subject of one data set is colon cells HT29. The data set can be described thus: Trypan blue cell viability, HT29. Format: cell-based. To be noted: 10 μM, HT29, trypan blue exclusion, FIG. 1. The procedure:
Cell viability was assessed by measuring the number of cells alive in samples of two different kind of prostate cells, respectively noted LNCAP and PC3, of breast cells noted MCF7, of colon cells noted HT29, of metastatic melanoma cell lines A375 and of melanoma cells from patients noted GIC. The measure of cell viability as performed by cell counting using the trypan blue exclusion method. Results were expressed as the percentage of cells alive relatively to the number of living cells in the presence of DMSO, which corresponds to the negative control associated to the 100% value. Cells were seeded in 6-well plates (60000 cells/well), depleted and incubated with compounds for the times indicated. Then cells were detached in the presence of 2000 of […] (Thermo) and 2 ml of RPMI 1640 Glutamax (Gibco) was added to the cell solution. 100 of this solution was stained for 1 minute with 100 of 0.4% trypan blue before counting with a Malassez chamber. The effect of compound on cell viability was studied on different types of cells. […] Cancer cells from prostate, breast, colon and melanoma A375 came from cell lines cultures. […] Results are expressed as percentage of cells alive relatively to the number of living cells in the presence of DMSO, which corresponds to the negative control associated to the 100% value. […]

For data set [1], the system named is metastatic melanoma cell line A375. In words: Trypan blue cell viability, A375. In kind it is cell-based. The following applies: 10 μM, A375, trypan blue exclusion, FIG. 1.
Data set [2] deals with melanoma cells from patients GIC. In words: Trypan blue cell viability, patient melanoma cells GIC. Format: cell-based, human. The following applies: 10 μM, trypan blue exclusion, FIG. 1. Here is the method: Cell viability was assessed by measuring the number of cells alive in samples of two different kind of prostate cells, respectively noted LNCAP and PC3, of breast cells noted MCF7, of colon cells noted HT29, of metastatic melanoma cell lines A375 and of melanoma cells from patients noted GIC. The measure of cell viability as performed by cell counting using the trypan blue exclusion method. Results were expressed as the percentage of cells alive relatively to the number of living cells in the presence of DMSO, which corresponds to the negative control associated to the 100% value. Patient melanoma cells were prepared from biopsy after digestion for 1-2 h with collagenase A (0.33 U/ml), dispase (0.85 U/ml) and Dnase I (144 U/ml) at 37° C. Large debris were removed by filtration through a […] cell strainer. Cells were seeded in 6-well plates (60000 cells/well), depleted and incubated with compounds for the times indicated. Then cells were detached in the presence of 2000 of […] (Thermo) and 2 ml of RPMI 1640 Glutamax (Gibco) was added to the cell solution. 100 of this solution was stained for 1 minute with 100 of 0.4% trypan blue before counting with a Malassez chamber. […] Results are expressed as percentage of cells alive relatively to the number of living cells in the presence of DMSO, which corresponds to the negative control associated to the 100% value. […]

Another data set has as its system normal human melanocytes. The data set can be described thus: Trypan blue cell viability, normal melanocytes. In kind it is cell-based. To be noted: 10 μM, FIG. 2. The procedure:
Primary cell cultures of human normal melanocytes were prepared from human foreskin. In order to determine the effect of compound HA15 on cell viability of melanocytes and fibroblasts, 10 μM of ciglitazone or 10 μM of HA15 were added to the cell samples. The measure of cell viability was performed in the same way as for FIG. 1. Results are expressed as the percentage of living cells relatively to the number of living cells in the presence of DMSO, as for FIG. 1. Normal human melanocytes (NHM) prepared from foreskins of newborns were grown under 5% CO2 at 37° C. in MCDB 153 (Sigma) supplemented with 2% FCS, bovine pituitary extract (10 μg/ml), PMA (8 nM), bFGF (ing/nil), insulin (5 μg/ml), hydrocortisone (0.5 μg/ml), forskolin (10 μM), gentamicin (20 μg/ml), penicillin/streptomycin/amphotericin B (100 U/ml) (Invitrogen). Cells were seeded in 6-well plates (60000 cells/well), depleted and incubated with compounds for the times indicated. Then cells were detached in the presence of 2000 of […] (Thermo) and 2 ml of RPMI 1640 Glutamax (Gibco) was added to the cell solution. 100 of this solution was stained for 1 minute with 100 of 0.4% trypan blue before counting with a Malassez chamber. The effect of compound HA15 on cell viability of melanocytes and fibroblasts was studied, as illustrated by FIG. 2. Primary cell cultures of human normal melanocytes were prepared from human foreskin. […]

Regarding `CC(=O)Nc1nc(-c2cccc(NS(=O)(=O)c3cccc4c(N(C)C)cccc34)c2)cs1` [HA15, N-(4-(3-(5-(dimethylamino)naphthalene-1-sulfonamido)phenyl)thiazol-2-yl)acetamide], the “cell viability (cells alive relative to DMSO)” value (with colon cells HT29; in data set [1]; in data set [2]) was “viability greatly reduced” throughout. Also, the “cell viability of normal melanocytes” value with normal human melanocytes is “not affected”.
